Laboratory results published in paper PMC7509217 (Cellular and Molecular Gastroenterology and Hepatology, 2020).

Biological target: rat ACC2 (acetyl-CoA carboxylase 2) (Rattus norvegicus, UniProt O70151)
Assay: citrate-activated ACC enzyme, […]bicarbonate incorporation into malonyl-CoA
Assay type: biochemical

Sequence of rat ACC2 (acetyl-CoA carboxylase 2) (O70151 1-2456): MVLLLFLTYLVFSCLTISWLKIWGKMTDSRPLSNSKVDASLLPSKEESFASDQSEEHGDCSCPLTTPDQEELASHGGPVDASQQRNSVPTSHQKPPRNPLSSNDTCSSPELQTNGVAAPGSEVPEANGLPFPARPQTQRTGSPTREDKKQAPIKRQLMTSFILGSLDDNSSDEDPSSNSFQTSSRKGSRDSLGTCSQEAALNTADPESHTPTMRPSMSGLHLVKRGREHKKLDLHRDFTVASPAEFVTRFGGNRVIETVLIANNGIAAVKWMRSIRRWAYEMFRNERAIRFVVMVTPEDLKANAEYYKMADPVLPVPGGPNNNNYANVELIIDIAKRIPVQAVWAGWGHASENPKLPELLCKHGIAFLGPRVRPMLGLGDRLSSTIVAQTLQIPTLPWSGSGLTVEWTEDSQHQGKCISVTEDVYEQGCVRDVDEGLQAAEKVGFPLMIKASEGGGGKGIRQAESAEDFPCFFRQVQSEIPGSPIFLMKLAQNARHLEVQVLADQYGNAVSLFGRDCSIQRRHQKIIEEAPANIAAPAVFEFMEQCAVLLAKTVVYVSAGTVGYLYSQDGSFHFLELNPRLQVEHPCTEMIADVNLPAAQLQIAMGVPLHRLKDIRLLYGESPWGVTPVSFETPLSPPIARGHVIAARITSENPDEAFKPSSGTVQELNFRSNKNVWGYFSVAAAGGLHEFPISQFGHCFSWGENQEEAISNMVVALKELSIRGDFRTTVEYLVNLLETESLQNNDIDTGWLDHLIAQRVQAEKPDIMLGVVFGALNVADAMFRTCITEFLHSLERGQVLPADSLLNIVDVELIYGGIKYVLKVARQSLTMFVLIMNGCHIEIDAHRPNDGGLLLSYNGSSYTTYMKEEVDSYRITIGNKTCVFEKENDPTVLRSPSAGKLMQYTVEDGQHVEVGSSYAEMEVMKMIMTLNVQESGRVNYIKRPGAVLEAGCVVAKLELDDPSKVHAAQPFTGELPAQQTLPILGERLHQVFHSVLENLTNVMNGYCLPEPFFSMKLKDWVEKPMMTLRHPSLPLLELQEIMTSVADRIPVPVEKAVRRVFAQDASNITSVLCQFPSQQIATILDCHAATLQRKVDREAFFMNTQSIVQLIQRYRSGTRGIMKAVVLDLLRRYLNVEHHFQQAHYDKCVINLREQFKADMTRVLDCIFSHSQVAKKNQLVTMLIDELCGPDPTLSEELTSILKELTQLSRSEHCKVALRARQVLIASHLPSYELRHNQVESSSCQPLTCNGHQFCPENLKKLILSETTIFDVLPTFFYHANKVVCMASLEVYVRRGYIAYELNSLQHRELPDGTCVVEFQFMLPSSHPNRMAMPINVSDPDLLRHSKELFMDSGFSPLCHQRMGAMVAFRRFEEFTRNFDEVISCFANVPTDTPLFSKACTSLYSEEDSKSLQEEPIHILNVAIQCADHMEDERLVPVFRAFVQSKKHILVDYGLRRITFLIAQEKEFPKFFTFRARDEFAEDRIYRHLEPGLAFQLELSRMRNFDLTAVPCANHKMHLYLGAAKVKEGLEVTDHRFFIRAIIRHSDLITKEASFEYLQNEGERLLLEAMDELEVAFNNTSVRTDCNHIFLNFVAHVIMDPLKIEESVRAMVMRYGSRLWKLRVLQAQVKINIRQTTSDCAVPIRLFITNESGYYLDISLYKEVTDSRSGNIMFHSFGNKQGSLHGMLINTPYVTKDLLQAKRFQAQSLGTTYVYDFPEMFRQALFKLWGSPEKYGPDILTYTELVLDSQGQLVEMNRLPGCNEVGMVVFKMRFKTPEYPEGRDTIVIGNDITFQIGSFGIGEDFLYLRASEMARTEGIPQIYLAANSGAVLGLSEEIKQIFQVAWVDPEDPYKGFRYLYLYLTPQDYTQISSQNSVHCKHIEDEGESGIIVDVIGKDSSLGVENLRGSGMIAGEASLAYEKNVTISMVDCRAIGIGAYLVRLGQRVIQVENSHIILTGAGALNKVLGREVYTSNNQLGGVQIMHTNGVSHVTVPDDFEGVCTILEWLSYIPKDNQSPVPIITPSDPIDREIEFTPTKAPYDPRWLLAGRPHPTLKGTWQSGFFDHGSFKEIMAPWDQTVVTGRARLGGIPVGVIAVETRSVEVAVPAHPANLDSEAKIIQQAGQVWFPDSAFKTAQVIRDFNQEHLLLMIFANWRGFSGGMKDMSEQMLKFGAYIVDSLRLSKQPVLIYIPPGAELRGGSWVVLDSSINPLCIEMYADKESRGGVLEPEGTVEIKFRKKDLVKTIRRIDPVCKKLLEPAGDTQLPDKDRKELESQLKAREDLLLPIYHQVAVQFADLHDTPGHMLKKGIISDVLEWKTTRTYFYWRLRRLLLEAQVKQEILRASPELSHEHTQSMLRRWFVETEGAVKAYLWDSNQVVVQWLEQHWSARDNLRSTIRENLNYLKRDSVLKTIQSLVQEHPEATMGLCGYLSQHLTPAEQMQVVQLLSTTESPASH

How did the IC50 turn out when COc1cc(C(=O)N2CCC3(CC2)CC(=O)c2c(cnn2C(C)C)C3)cc(-c2ccc(C(=O)O)cc2)n1 [PF-05221304] was run?
The IC50 was 8.2 ± 4.1 nM.
